Test results published in article PMC5218480 (PLoS ONE, 2017).

Tested on: MV-4-11 cells
Assay: Gene expression microarray analysis (Affymetrix PrimeView) and GSEA
Format: cell-based, human
Parameters: RFU PODN (11730768_x_at) / Fold change /veh PODN (11730768_x_at) / RFU LINC00158 (11744669_a_at) / Fold change /veh LINC00158 (11744669_a_at) / RFU DUSP10 (11751237_a_at) / Fold change /veh DUSP10 (11751237_a_at) / RFU ID3 (11757404_x_at) / Fold change /veh ID3 (11757404_x_at) / RFU PLEKHG5 (11737974_s_at) / Fold change /veh PLEKHG5 (11737974_s_at) / RFU LRRC4B (11730491_at) / Fold change /veh LRRC4B (11730491_at) / RFU GIMAP4 (11747438_a_at) / Fold change /veh GIMAP4 (11747438_a_at) / RFU KRT8 (11758183_x_at) / Fold change /veh KRT8 (11758183_x_at) / RFU CNN1 (11734310_a_at) / Fold change /veh CNN1 (11734310_a_at) / RFU VPS37D (11726825_at) / Fold change /veh VPS37D (11726825_at) / RFU C10orf10 (11716522_x_at) / Fold change /veh C10orf10 (11716522_x_at) / RFU KIR2DL2 /// KIR2DL4 /// KIR2DL5A /// KIR2DL5B /// KIR2DS1 /// KIR2DS2 /// KIR2DS3 /// KIR2DS4 /// KIR3DL3 /// KIR3DL3 /// KIR3DS1 (11738374_at) / Fold change /veh KIR2DL2 /// KIR2DL4 /// KIR2DL5A /// KIR2DL5B /// KIR2DS1 /// KIR2DS2 /// KIR2DS3 /// KIR2DS4 /// KIR3DL3 /// KIR3DL3 /// KIR3DS1 (11738374_at) / RFU C1QL1 (11718748_at) / Fold change /veh C1QL1 (11718748_at) / RFU TMPRSS4 (11747572_a_at) / Fold change /veh TMPRSS4 (11747572_a_at) / RFU HAMP (11756126_x_at) / Fold change /veh HAMP (11756126_x_at) / RFU RNFT2 (11725882_a_at) / Fold change /veh RNFT2 (11725882_a_at) / RFU NR4A2 (11747474_a_at) / Fold change /veh NR4A2 (11747474_a_at) / RFU ABCC12 (11746883_a_at) / Fold change /veh ABCC12 (11746883_a_at) / RFU TMEM136 (11760407_x_at) / Fold change /veh TMEM136 (11760407_x_at) / RFU CLDN22 /// WWC2 (11732394_at) / Fold change /veh CLDN22 /// WWC2 (11732394_at) / RFU HLA-DPB1 (11760878_x_at) / Fold change /veh HLA-DPB1 (11760878_x_at) / RFU SPINT1 (11716480_a_at) / Fold change /veh SPINT1 (11716480_a_at) / RFU GAP43 (11754022_s_at) / Fold change /veh GAP43 (11754022_s_at) / RFU A4GNT (11735810_at) / Fold change /veh A4GNT (11735810_at) / RFU PRB3 (11715151_x_at) / Fold change /veh PRB3 (11715151_x_at) / RFU TUBB4B (11761932_at) / Fold change /veh TUBB4B (11761932_at) / RFU CAPN14 (11732068_a_at) / Fold change /veh CAPN14 (11732068_a_at) / RFU TMCC2 (11721928_a_at) / Fold change /veh TMCC2 (11721928_a_at) / RFU IRGQ (11745062_a_at) / Fold change /veh IRGQ (11745062_a_at) / RFU FAM174B (11720279_a_at) / Fold change /veh FAM174B (11720279_a_at) / RFU TMPRSS4 (11748680_a_at) / Fold change /veh TMPRSS4 (11748680_a_at) / RFU FAM212B (11763350_a_at) / Fold change /veh FAM212B (11763350_a_at) / RFU PLEKHG5 (11743358_a_at) / Fold change /veh PLEKHG5 (11743358_a_at) / RFU ZSCAN30 (11745921_a_at) / Fold change /veh ZSCAN30 (11745921_a_at) / RFU CMKLR1 (11741424_a_at) / Fold change /veh CMKLR1 (11741424_a_at) / RFU LOC101060620 /// MAPK8IP1 (11723275_at) / Fold change /veh LOC101060620 /// MAPK8IP1 (11723275_at) / RFU SPTSSB (11747773_x_at) / Fold change /veh SPTSSB (11747773_x_at) / RFU PRSS12 (11739890_at) / Fold change /veh PRSS12 (11739890_at) / RFU BIN1 (11741810_x_at) / Fold change /veh BIN1 (11741810_x_at) / RFU WNT11 (11732464_a_at) / Fold change /veh WNT11 (11732464_a_at) / RFU C10orf10 (11716521_a_at) / Fold change /veh C10orf10 (11716521_a_at) / RFU C5orf56 (11738089_at) / Fold change /veh C5orf56 (11738089_at) / RFU CYB561 (11721691_x_at) / Fold change /veh CYB561 (11721691_x_at) / RFU ANKRD19P (11752326_a_at) / Fold change /veh ANKRD19P (11752326_a_at) / RFU OR2T12 /// OR2T33 /// OR2T8 (11738714_s_at) / Fold change /veh OR2T12 /// OR2T33 /// OR2T8 (11738714_s_at) / RFU VCAN (11748164_a_at) / Fold change /veh VCAN (11748164_a_at) / RFU JSRP1 (11732532_at) / Fold change /veh JSRP1 (11732532_at) / RFU KRTAP10-11 (11738290_x_at) / Fold change /veh KRTAP10-11 (11738290_x_at) / RFU MYO3A (11730013_a_at) / Fold change /veh MYO3A (11730013_a_at) / RFU EBF3 (11725865_a_at) / Fold change /veh EBF3 (11725865_a_at) / RFU CAMK2N1 (11719241_x_at) / Fold change /veh CAMK2N1 (11719241_x_at) / RFU C5orf56 (11738088_a_at) / Fold change /veh C5orf56 (11738088_a_at) / RFU OLFML3 (11715873_a_at) / Fold change /veh OLFML3 (11715873_a_at) / RFU LOC100653217 /// NTM (11731650_a_at) / Fold change /veh LOC100653217 /// NTM (11731650_a_at) / RFU MAPK11 (11762145_a_at) / Fold change /veh MAPK11 (11762145_a_at) / RFU FIZ1 (11724087_x_at) / Fold change /veh FIZ1 (11724087_x_at) / RFU OASL (11726364_x_at) / Fold change /veh OASL (11726364_x_at) / RFU SOX15 (11748057_x_at) / Fold change /veh SOX15 (11748057_x_at) / RFU CD79A (11719716_a_at) / Fold change /veh CD79A (11719716_a_at) / RFU HIST1H1D (11736915_at) / Fold change /veh HIST1H1D (11736915_at) / RFU CASKIN2 (11723855_a_at) / Fold change /veh CASKIN2 (11723855_a_at) / RFU LOC730098 (11760151_x_at) / Fold change /veh LOC730098 (11760151_x_at) / RFU OR4N2 (11742367_at) / Fold change /veh OR4N2 (11742367_at) / RFU PRRT2 (11749266_a_at) / Fold change /veh PRRT2 (11749266_a_at) / RFU SNX32 (11753110_a_at) / Fold change /veh SNX32 (11753110_a_at) / RFU CDHR5 (11726645_a_at) / Fold change /veh CDHR5 (11726645_a_at) / RFU RCAN1 (11760418_a_at) / Fold change /veh RCAN1 (11760418_a_at) / RFU FAM167A (11723789_a_at) / Fold change /veh FAM167A (11723789_a_at) / RFU FAM26E (11764081_at) / Fold change /veh FAM26E (11764081_at) / RFU ISYNA1 (11749810_s_at) / Fold change /veh ISYNA1 (11749810_s_at) / RFU ACY1 (11761880_at) / Fold change /veh ACY1 (11761880_at) / RFU 11764098_at / Fold change /veh 11764098_at / RFU SAMD14 (11745864_x_at) / Fold change /veh SAMD14 (11745864_x_at) / RFU NPB (11741838_a_at) / Fold change /veh NPB (11741838_a_at) / RFU TMPRSS6 (11731388_a_at) / Fold change /veh TMPRSS6 (11731388_a_at) / RFU KRTAP10-2 (11738614_at) / Fold change /veh KRTAP10-2 (11738614_at) / RFU ARHGAP8 /// PRR5-ARHGAP8 (11727945_x_at) / Fold change /veh ARHGAP8 /// PRR5-ARHGAP8 (11727945_x_at) / RFU KRTAP5-7 /// NADSYN1 (11734609_at) / Fold change /veh KRTAP5-7 /// NADSYN1 (11734609_at) / RFU RASL12 (11751679_a_at) / Fold change /veh RASL12 (11751679_a_at) / RFU CDKN2B (11736163_a_at) / Fold change /veh CDKN2B (11736163_a_at) / RFU PRF1 (11729649_at) / Fold change /veh PRF1 (11729649_at) / RFU, ZNF638 /// ZNF638-IT1 / Fold change vs veh, ZNF638 /// ZNF638-IT1 / RFU, PANK3 / Fold change vs veh, PANK3 / RFU, SH3YL1 / Fold change vs veh, SH3YL1 / RFU, ZEB2 / Fold change vs veh, ZEB2 / RFU, NRIP1 / Fold change vs veh, NRIP1 / RFU, PTTG1IP / Fold change vs veh, PTTG1IP / RFU, CAPN2 / Fold change vs veh, CAPN2 / RFU, MED14 / Fold change vs veh, MED14 / RFU, SNORA58 / Fold change vs veh, SNORA58 / RFU, C1orf63 / Fold change vs veh, C1orf63 / RFU, LRRFIP1 / Fold change vs veh, LRRFIP1 / RFU, NDUFAF7 / Fold change vs veh, NDUFAF7 / RFU, SLC12A2 / Fold change vs veh, SLC12A2 / RFU, IBTK / Fold change vs veh, IBTK / RFU, ESF1 / Fold change vs veh, ESF1 / Fold change vs veh, TMEM50B / RFU, TAOK1 / Fold change vs veh, TAOK1 / RFU, ACBD3 / Fold change vs veh, ACBD3 / RFU, TMA16 / Fold change vs veh, TMA16 / RFU, RWDD3 / Fold change vs veh, RWDD3 / RFU, BCAT1 / Fold change vs veh, BCAT1 / RFU, EDEM3 / Fold change vs veh, EDEM3 / RFU, TMEM33 / Fold change vs veh, TMEM33 / RFU, WDR75 / Fold change vs veh, WDR75 / RFU, AHCTF1 / Fold change vs veh, AHCTF1 / RFU, TFRC / Fold change vs veh, TFRC / RFU, ZDHHC17 / Fold change vs veh, ZDHHC17 / RFU, NOM1 / Fold change vs veh, NOM1 / RFU, ARL8B / Fold change vs veh, ARL8B / RFU, ZBTB11 / Fold change vs veh, ZBTB11 / RFU, TAMM41 / Fold change vs veh, TAMM41 / RFU, KIAA1704 /// LOC100996395 / Fold change vs veh, KIAA1704 /// LOC100996395 / RFU, ING1 / Fold change vs veh, ING1 / RFU, TRMT61B / Fold change vs veh, TRMT61B / RFU, FUBP3 / Fold change vs veh, FUBP3 / RFU, TP53 / Fold change vs veh, TP53 / RFU, TNKS2 / Fold change vs veh, TNKS2 / RFU, ZFP14 / Fold change vs veh, ZFP14 / RFU, ACTR2 / Fold change vs veh, ACTR2 / RFU, PPP3R1 / Fold change vs veh, PPP3R1 / RFU, PIK3R1 / Fold change vs veh, PIK3R1 / RFU, HNRNPA1 / Fold change vs veh, HNRNPA1 / RFU, RNF170 / Fold change vs veh, RNF170 / RFU, ZNF28 / Fold change vs veh, ZNF28 / RFU, RNGTT / Fold change vs veh, RNGTT / RFU, OGT / Fold change vs veh, OGT / RFU, BRD1 / Fold change vs veh, BRD1 / RFU, MARS / Fold change vs veh, MARS / RFU, ZNF655 / Fold change vs veh, ZNF655 / RFU, FAHD1 / Fold change vs veh, FAHD1 / RFU, BDP1 / Fold change vs veh, BDP1 / RFU, LRRCC1 / Fold change vs veh, LRRCC1 / RFU, ARID1A / Fold change vs veh, ARID1A / RFU, ZNF146 / Fold change vs veh, ZNF146 / RFU, ZNF330 / Fold change vs veh, ZNF330 / RFU, GPN3 / Fold change vs veh, GPN3 / RFU, C9orf123 / Fold change vs veh, C9orf123 / RFU, N4BP2L2 / Fold change vs veh, N4BP2L2 / RFU, ARFIP1 / Fold change vs veh, ARFIP1 / RFU, FAM179B / Fold change vs veh, FAM179B / RFU, BCL10 / Fold change vs veh, BCL10 / RFU, UHRF1BP1L / Fold change vs veh, UHRF1BP1L / RFU, BET1 / Fold change vs veh, BET1 / RFU, CNOT2 / Fold change vs veh, CNOT2 / RFU, ZNF268 / Fold change vs veh, ZNF268 / Fold change vs veh, ZNF507 / RFU, DGCR2 / Fold change vs veh, DGCR2 / RFU, WDSUB1 / Fold change vs veh, WDSUB1 / Fold change vs veh, HSP90B1 /// MIR3652 / RFU, ADSS / Fold change vs veh, ADSS / RFU, GK / Fold change vs veh, GK / RFU, ZNF148 / Fold change vs veh, ZNF148 / RFU, TAF9 / Fold change vs veh, TAF9 / RFU, SLC1A5 / Fold change vs veh, SLC1A5 / RFU, SLMO2 / Fold change vs veh, SLMO2 / RFU, ABCC4 / Fold change vs veh, ABCC4 / RFU, LOC101060439 /// RAP1B / Fold change vs veh, LOC101060439 /// RAP1B / RFU, RFX7 / Fold change vs veh, RFX7 / RFU, GTPBP10 / Fold change vs veh, GTPBP10 / RFU, CNEP1R1 / Fold change vs veh, CNEP1R1 / RFU, BIVM-ERCC5 /// ERCC5 / Fold change vs veh, BIVM-ERCC5 /// ERCC5 / RFU, ILF3 / Fold change vs veh, ILF3 / RFU 11762660_at / Fold change /veh 11762660_at / RFU VCAN (11757783_s_at) / Fold change /veh VCAN (11757783_s_at) / RFU DDX43 (11728927_at) / Fold change /veh DDX43 (11728927_at) / RFU KRT8 (11758188_x_at) / Fold change /veh KRT8 (11758188_x_at) / RFU NKD1 (11759106_at) / Fold change /veh NKD1 (11759106_at) / RFU SRD5A1 (11742802_a_at) / Fold change /veh SRD5A1 (11742802_a_at) / RFU TPSAB1 /// TPSB2 (11721975_s_at) / Fold change /veh TPSAB1 /// TPSB2 (11721975_s_at) / RFU GSTM3 (11746129_a_at) / Fold change /veh GSTM3 (11746129_a_at) / RFU IL23R (11737362_x_at) / Fold change /veh IL23R (11737362_x_at) / RFU TMEM51 (11727254_a_at) / Fold change /veh TMEM51 (11727254_a_at) / RFU PIWIL2 (11732686_x_at) / Fold change /veh PIWIL2 (11732686_x_at) / RFU ORM1 (11744905_x_at) / Fold change /veh ORM1 (11744905_x_at) / RFU CCDC152 (11743942_at) / Fold change /veh CCDC152 (11743942_at) / RFU ECM1 (11717891_a_at) / Fold change /veh ECM1 (11717891_a_at) / RFU IL23R (11748794_a_at) / Fold change /veh IL23R (11748794_a_at) / RFU TNFAIP8L3 (11732012_x_at) / Fold change /veh TNFAIP8L3 (11732012_x_at) / RFU MBOAT4 (11741988_at) / Fold change /veh MBOAT4 (11741988_at) / RFU 11764193_at / Fold change /veh 11764193_at / RFU TMEM53 (11763286_at) / Fold change /veh TMEM53 (11763286_at) / RFU MAGEB2 (11727129_at) / Fold change /veh MAGEB2 (11727129_at) / RFU TMEM200A (11744735_a_at) / Fold change /veh TMEM200A (11744735_a_at) / RFU CCDC152 (11751479_a_at) / Fold change /veh CCDC152 (11751479_a_at) / RFU FAM211A (11726209_a_at) / Fold change /veh FAM211A (11726209_a_at) / RFU RGS16 (11746705_a_at) / Fold change /veh RGS16 (11746705_a_at) / RFU VCAN (11755009_s_at) / Fold change /veh VCAN (11755009_s_at) / RFU RHOB (11743442_s_at) / Fold change /veh RHOB (11743442_s_at) / RFU RGS16 (11720943_a_at) / Fold change /veh RGS16 (11720943_a_at) / RFU RGS16 (11720944_at) / Fold change /veh RGS16 (11720944_at) / RFU, VPS4B / Fold change vs veh, VPS4B / RFU, CREB1 / Fold change vs veh, CREB1 / RFU, DNAJC13 / Fold change vs veh, DNAJC13 / RFU, GNAQ / Fold change vs veh, GNAQ / RFU, CDK5R1 / Fold change vs veh, CDK5R1 / RFU, ZRANB3 / Fold change vs veh, ZRANB3 / RFU, CUL4A / Fold change vs veh, CUL4A / RFU, CCNY / Fold change vs veh, CCNY / RFU, UFL1 / Fold change vs veh, UFL1 / RFU, COG3 / Fold change vs veh, COG3 / RFU, DIAPH2 / Fold change vs veh, DIAPH2 / RFU, SKA2 / Fold change vs veh, SKA2 / RFU, AFF3 / Fold change vs veh, AFF3 / RFU, LMF1 / Fold change vs veh, LMF1 / RFU, IPO11 / Fold change vs veh, IPO11 / RFU, DFFB / Fold change vs veh, DFFB / RFU, FOXP1 / Fold change vs veh, FOXP1 / RFU, CARD8 / Fold change vs veh, CARD8 / RFU, STRN3 / Fold change vs veh, STRN3 / RFU, ADK / Fold change vs veh, ADK / RFU, RASSF2 / Fold change vs veh, RASSF2 / RFU, WIPF1 / Fold change vs veh, WIPF1 / RFU, LARP1B / Fold change vs veh, LARP1B / RFU, RASA1 / Fold change vs veh, RASA1 / RFU, RB1 / Fold change vs veh, RB1 / RFU, PPFIA1 / Fold change vs veh, PPFIA1 / RFU, MAT2A / Fold change vs veh, MAT2A / RFU, CCT5 / Fold change vs veh, CCT5 / RFU, WDR92 / Fold change vs veh, WDR92 / RFU, CUX1 / Fold change vs veh, CUX1 / RFU, TTC7A / Fold change vs veh, TTC7A / RFU, TMEM135 / Fold change vs veh, TMEM135 / RFU, DEPTOR / Fold change vs veh, DEPTOR / RFU, CPM / Fold change vs veh, CPM / RFU, DNAJB6 / Fold change vs veh, DNAJB6 / RFU, CACNA2D3 / Fold change vs veh, CACNA2D3 / RFU, DTX4 / Fold change vs veh, DTX4 / RFU, TFCP2 / Fold change vs veh, TFCP2 / RFU, GMCL1 /// GMCL1P1 / Fold change vs veh, GMCL1 /// GMCL1P1 / RFU, AEBP2 / Fold change vs veh, AEBP2 / RFU, SNHG1 /// SNORD22 /// SNORD25 /// SNORD26 /// SNORD27 /// SNORD28 /// SNORD29 /// SNORD31 / Fold change vs veh, SNHG1 /// SNORD22 /// SNORD25 /// SNORD26 /// SNORD27 /// SNORD28 /// SNORD29 /// SNORD31 / Fold change (Aza/veh), C12orf56 (ProbeSet 11735607_a_at) / Fold change (ACY-1035/veh), C12orf56 (ProbeSet 11735607_a_at) / Fold change (Aza/veh), FGFR1OP (ProbeSet 11751329_s_at) / Fold change (ACY-1035/veh), FGFR1OP (ProbeSet 11751329_s_at) / Fold change (Aza/veh), VPS36 (ProbeSet 11739960_a_at) / Fold change (ACY-1035/veh), VPS36 (ProbeSet 11739960_a_at) / RFU SYPL1 (11715823_x_at) / Fold change /veh SYPL1 (11715823_x_at) / RFU IGFBP7 (11715501_s_at) / Fold change /veh IGFBP7 (11715501_s_at) / RFU REEP3 (11722064_at) / Fold change /veh REEP3 (11722064_at) / RFU IGLL1 (11728026_x_at) / Fold change /veh IGLL1 (11728026_x_at): dose or concentration left out as unconfirmed
Settings: MV-4-11 cells, 48 hours

With Nc1ncn([C@@H]2O[C@H](CO)[C@@H](O)[C@H]2O)c(=O)n1 [azacitidine] the “Fold change /veh FAM211A (11726209_a_at)” value was 1.26.
